# Source: patent US12552797B2, “Process for making (3-[cyclopropylethoxy(difluoro)methyl]-6-6[5-fluoro-6-(2,2,2-trifluoroethoxy-3-pyridyl]- [1,2,4]triazolo[4,3-a]pyrazine” (Praxis Precision Medicines, Inc., priority 2019, dated 2026)
# Key:
# [1] = Stability of suspension formulations in methylcellulose/Poloxamer 188 vehicles (appearance, concentration, purity, PSD); format: physicochemical; parameters: key: *: homogeneous suspension initially, sedimentation occurred over time and returned to homogeneous after gentle agitation; #: viscous homogeneous suspension initially, sedimentation occurred over time and returned to homogeneous after gentle agitation
# Experimental: (§1) As shown in Tables 9-11, various suspension formulations were tested for stability under different conditions.
# (§2) To prepare a suspension weigh required amount of milled Compound 1 into a glass container and add corresponding volume of the vehicle. Thoroughly disperse the compound into a homogenous suspension using an overhead mixer at the final concentration target. Concentrations were prepared at 0.1 mg/mL and at 10 mg/mL. The suspension products were physically evaluated on visual appearance, concentration, purity and PSD.
# (§3) The vehicles are prepared by dissolving 0.5% by weight of either 400 cP methylcellulose or 4000 cP methylcellulose and 0.2% Poloxamer 188. For the preserved suspensions, additionally 1.0% by volume of paraben preservative solution was dissolved into vehicle using an overhead mixer. The paraben preservative solution was prepared by dissolving 0.10 g methyl paraben, 0.025 g propylparaben in 9.875 g propylene glycol dissolved by mixing with a stir bar at room temperature for 1 hour.
# [2] = as above; format: physicochemical; parameters: key to Appearance: *: homogeneous suspension initially, sedimentation occurred over time and returned to homogeneous after gentle agitation for ~1 min; #: viscous homogeneous suspension initially, sedimentation occurred over time and returned to homogeneous after gentle agitation for ~2 mins; details: 0.5% 400 cP MC, 0.2% Poloxamer 188
# Experimental: as §1, §2, §3
# [3] = target 0.1 mg/mL, 2-8° C., 14 D
# [4] = target 0.1 mg/mL, 2-8° C., 28 D
# [5] = target 0.1 mg/mL, 2-8° C., time 0
# [6] = target 0.1 mg/mL, 25° C./60% RH, 2 M
# [7] = target 0.1 mg/mL, 25° C./60% RH, 3 M
# [8] = target 0.1 mg/mL, 25° C./60% RH, 7 D
# [9] = target 0.1 mg/mL, 25° C./60% RH, 14 D
# [10] = target 0.1 mg/mL, 25° C./60% RH, 28 D
# [11] = target 0.1 mg/mL, 25° C./60% RH, time 0
# [12] = target 10 mg/mL, 2-8° C., time 0
# [13] = target 10 mg/mL, 25° C./60% RH, 2 M
# [14] = target 10 mg/mL, 25° C./60% RH, 3 M
# [15] = target 10 mg/mL, 25° C./60% RH, 7 D
# [16] = target 10 mg/mL, 25° C./60% RH, 14 D
# [17] = target 10 mg/mL, 25° C./60% RH, 28 D
# [18] = target 10 mg/mL, 25° C./60% RH, time 0
compound,measurement,setting,value
"CCOC(F)(F)c1nnc2cnc(-c3cnc(OCC(F)(F)F)c(F)c3)cn12 [Compound 1, 3-(ethoxydifluoromethyl)-6-(5-fluoro-6-(2,2,2-trifluoroethoxy)pyridin-3-yl)-[1,2,4]triazolo[4,3-a]pyrazine]",Visual Appearance,"[1]; 0.5% 400 cP MC, 0.2% Poloxamer 188, 0.1 mg/mL, 1 h at RT",*
same,Visual Appearance,"[1]; 0.5% 400 cP MC, 0.2% Poloxamer 188, 0.1 mg/mL, 4 h at RT",*
same,Visual Appearance,"[1]; 0.5% 400 cP MC, 0.2% Poloxamer 188, 0.1 mg/mL, 24 h at RT",*
same,Visual Appearance,"[1]; 0.5% 400 cP MC, 0.2% Poloxamer 188, 10 mg/mL, 1 h at RT",*
same,Visual Appearance,"[1]; 0.5% 400 cP MC, 0.2% Poloxamer 188, 10 mg/mL, 4 h at RT",*
same,Visual Appearance,"[1]; 0.5% 400 cP MC, 0.2% Poloxamer 188, 10 mg/mL, 24 h at RT",*
same,Visual Appearance,"[1]; 0.5% 400 cP MC, 0.2% Poloxamer 188 and 1.0% of paraben preservative solution, 0.1 mg/mL, 1 h at RT",*
same,Visual Appearance,"[1]; 0.5% 400 cP MC, 0.2% Poloxamer 188 and 1.0% of paraben preservative solution, 0.1 mg/mL, 4 h at RT",*
same,Visual Appearance,"[1]; 0.5% 400 cP MC, 0.2% Poloxamer 188 and 1.0% of paraben preservative solution, 0.1 mg/mL, 24 h at RT",*
same,Visual Appearance,"[1]; 0.5% 400 cP MC, 0.2% Poloxamer 188 and 1.0% of paraben preservative solution, 10 mg/mL, 1 h at RT",*
same,Visual Appearance,"[1]; 0.5% 400 cP MC, 0.2% Poloxamer 188 and 1.0% of paraben preservative solution, 10 mg/mL, 4 h at RT",*
same,Visual Appearance,"[1]; 0.5% 400 cP MC, 0.2% Poloxamer 188 and 1.0% of paraben preservative solution, 10 mg/mL, 24 h at RT",*
same,Visual Appearance,"[1]; 0.5% 4000 cP MC, 0.2% Poloxamer 188, 0.1 mg/mL, 1 h at RT",#
same,Visual Appearance,"[1]; 0.5% 4000 cP MC, 0.2% Poloxamer 188, 0.1 mg/mL, 4 h at RT",#
same,Visual Appearance,"[1]; 0.5% 4000 cP MC, 0.2% Poloxamer 188, 0.1 mg/mL, 24 h at RT",#
same,Visual Appearance,"[1]; 0.5% 4000 cP MC, 0.2% Poloxamer 188, 10 mg/mL, 1 h at RT",#
same,Visual Appearance,"[1]; 0.5% 4000 cP MC, 0.2% Poloxamer 188, 10 mg/mL, 4 h at RT",#
same,Visual Appearance,"[1]; 0.5% 4000 cP MC, 0.2% Poloxamer 188, 10 mg/mL, 24 h at RT",#
same,Visual Appearance,"[1]; 0.5% 4000 cP MC, 0.2% Poloxamer 188 and 1.0% of paraben preservative solution, 0.1 mg/mL, 1 h at RT",#
same,Visual Appearance,"[1]; 0.5% 4000 cP MC, 0.2% Poloxamer 188 and 1.0% of paraben preservative solution, 0.1 mg/mL, 4 h at RT",#
same,Visual Appearance,"[1]; 0.5% 4000 cP MC, 0.2% Poloxamer 188 and 1.0% of paraben preservative solution, 0.1 mg/mL, 24 h at RT",#
same,Visual Appearance,"[1]; 0.5% 4000 cP MC, 0.2% Poloxamer 188 and 1.0% of paraben preservative solution, 10 mg/mL, 1 h at RT",#
same,Visual Appearance,"[1]; 0.5% 4000 cP MC, 0.2% Poloxamer 188 and 1.0% of paraben preservative solution, 10 mg/mL, 4 h at RT",#
same,Visual Appearance,"[1]; 0.5% 4000 cP MC, 0.2% Poloxamer 188 and 1.0% of paraben preservative solution, 10 mg/mL, 24 h at RT",#
same,Appearance,"[2]; target 0.1 mg/mL, 2-8° C., 2 M",*
same,Conc.,"[2]; target 0.1 mg/mL, 2-8° C., 2 M",110 µg/mL
same,PSD (D90),"[2]; target 0.1 mg/mL, 2-8° C., 2 M",9.1 μm
same,Purity,"[2]; target 0.1 mg/mL, 2-8° C., 2 M",95.87%
same,Appearance,"[2]; target 0.1 mg/mL, 2-8° C., 3 M",*
same,Conc.,"[2]; target 0.1 mg/mL, 2-8° C., 3 M",110 µg/mL
same,PSD (D90),"[2]; target 0.1 mg/mL, 2-8° C., 3 M",12.7 μm
same,Purity,"[2]; target 0.1 mg/mL, 2-8° C., 3 M",93.20%
same,Appearance,"[2]; target 0.1 mg/mL, 2-8° C., 7 D",*
same,Conc.,"[2]; target 0.1 mg/mL, 2-8° C., 7 D",120 µg/mL
same,PSD (D90),"[2]; target 0.1 mg/mL, 2-8° C., 7 D",18.2 μm
same,Purity,"[2]; target 0.1 mg/mL, 2-8° C., 7 D",100%
same,Appearance,[2]; [3],*
same,Conc.,[2]; [3],110 µg/mL
same,PSD (D90),[2]; [3],14.2 μm
same,Purity,[2]; [3],100%
same,Appearance,[2]; [4],*
same,Conc.,[2]; [4],110 µg/mL
same,PSD (D90),[2]; [4],15.4 μm
same,Purity,[2]; [4],100%
same,Appearance,[2]; [5],*
same,Conc.,[2]; [5],110 µg/mL
same,PSD (D90),[2]; [5],19.9 μm
same,Purity,[2]; [5],100%
same,Appearance,[2]; [6],*
same,Conc.,[2]; [6],110 µg/mL
same,PSD (D90),[2]; [6],8.6 μm
same,Purity,[2]; [6],95.87%
same,Appearance,[2]; [7],*
same,Conc.,[2]; [7],110 µg/mL
same,PSD (D90),[2]; [7],11.1 μm
same,Purity,[2]; [7],93.20%
same,Appearance,[2]; [8],*
same,Conc.,[2]; [8],110 µg/mL
same,PSD (D90),[2]; [8],19.9 μm
same,Purity,[2]; [8],100.0%
same,Appearance,[2]; [9],*
same,Conc.,[2]; [9],110 µg/mL
same,PSD (D90),[2]; [9],12.9 μm
same,Purity,[2]; [9],100%
same,Appearance,[2]; [10],*
same,Conc.,[2]; [10],100 µg/mL
same,PSD (D90),[2]; [10],8.7 μm
same,Purity,[2]; [10],100%
same,Appearance,[2]; [11],*
same,Conc.,[2]; [11],110 µg/mL
same,PSD (D90),[2]; [11],19.9 μm
same,Purity,[2]; [11],100.0%
same,Appearance,"[2]; target 10 mg/mL, 2-8° C., 2 M",*
same,Conc.,"[2]; target 10 mg/mL, 2-8° C., 2 M",10990 µg/mL
same,PSD (D90),"[2]; target 10 mg/mL, 2-8° C., 2 M",4.0 μm
same,Purity,"[2]; target 10 mg/mL, 2-8° C., 2 M",99.83%
same,Appearance,"[2]; target 10 mg/mL, 2-8° C., 3 M",*
same,Conc.,"[2]; target 10 mg/mL, 2-8° C., 3 M",10130 µg/mL
same,PSD (D90),"[2]; target 10 mg/mL, 2-8° C., 3 M",3.6 μm
same,Purity,"[2]; target 10 mg/mL, 2-8° C., 3 M",99.83%
same,Appearance,"[2]; target 10 mg/mL, 2-8° C., 7 D",*
same,Conc.,"[2]; target 10 mg/mL, 2-8° C., 7 D",10180 µg/mL
same,PSD (D90),"[2]; target 10 mg/mL, 2-8° C., 7 D",6.4 μm
same,Purity,"[2]; target 10 mg/mL, 2-8° C., 7 D",99.83%
same,Appearance,"[2]; target 10 mg/mL, 2-8° C., 14 D",*
same,Conc.,"[2]; target 10 mg/mL, 2-8° C., 14 D",10660 µg/mL
same,PSD (D90),"[2]; target 10 mg/mL, 2-8° C., 14 D",5.4 μm
same,Purity,"[2]; target 10 mg/mL, 2-8° C., 14 D",99.83%
same,Appearance,"[2]; target 10 mg/mL, 2-8° C., 28 D",*
same,Conc.,"[2]; target 10 mg/mL, 2-8° C., 28 D",10560 µg/mL
same,PSD (D90),"[2]; target 10 mg/mL, 2-8° C., 28 D",3.8 μm
same,Purity,"[2]; target 10 mg/mL, 2-8° C., 28 D",99.83%
same,Appearance,[2]; [12],*
same,Conc.,[2]; [12],10040 µg/mL
same,PSD (D90),[2]; [12],5.6 μm
same,Purity,[2]; [12],99.83%
same,Appearance,[2]; [13],*
same,Conc.,[2]; [13],10470 µg/mL
same,PSD (D90),[2]; [13],4.3 μm
same,Purity,[2]; [13],99.83%
same,Appearance,[2]; [14],*
same,Conc.,[2]; [14],10160 µg/mL
same,PSD (D90),[2]; [14],3.5 μm
same,Purity,[2]; [14],99.83%
same,Appearance,[2]; [15],*
same,Conc.,[2]; [15],10480 µg/mL
same,PSD (D90),[2]; [15],6.3 μm
same,Purity,[2]; [15],99.83%
same,Appearance,[2]; [16],*
same,Conc.,[2]; [16],9850 µg/mL
same,PSD (D90),[2]; [16],5.2 μm
same,Purity,[2]; [16],99.83%
same,Appearance,[2]; [17],*
same,Conc.,[2]; [17],10000 µg/mL
same,PSD (D90),[2]; [17],4.6 μm
same,Purity,[2]; [17],99.83%
same,Appearance,[2]; [18],*
same,Conc.,[2]; [18],10040 µg/mL
same,PSD (D90),[2]; [18],5.6 μm
same,Purity,[2]; [18],99.83%
